The results in this text go back to patent EP1219631A1, “ANTIANDROGEN AGENTS” (CHUGAI SEIYAKU KABUSHIKI KAISHA, priority 1999, dated 2001).

One may read the IC50 as the concentration that gives 50% inhibition.

Assay [1] deals with T1, human androgen receptor (Homo sapiens, UniProt P10275).
T1 construct: expressed in transfected cells; host or cells: HeLa cells
T1 sequence (P10275 1-920): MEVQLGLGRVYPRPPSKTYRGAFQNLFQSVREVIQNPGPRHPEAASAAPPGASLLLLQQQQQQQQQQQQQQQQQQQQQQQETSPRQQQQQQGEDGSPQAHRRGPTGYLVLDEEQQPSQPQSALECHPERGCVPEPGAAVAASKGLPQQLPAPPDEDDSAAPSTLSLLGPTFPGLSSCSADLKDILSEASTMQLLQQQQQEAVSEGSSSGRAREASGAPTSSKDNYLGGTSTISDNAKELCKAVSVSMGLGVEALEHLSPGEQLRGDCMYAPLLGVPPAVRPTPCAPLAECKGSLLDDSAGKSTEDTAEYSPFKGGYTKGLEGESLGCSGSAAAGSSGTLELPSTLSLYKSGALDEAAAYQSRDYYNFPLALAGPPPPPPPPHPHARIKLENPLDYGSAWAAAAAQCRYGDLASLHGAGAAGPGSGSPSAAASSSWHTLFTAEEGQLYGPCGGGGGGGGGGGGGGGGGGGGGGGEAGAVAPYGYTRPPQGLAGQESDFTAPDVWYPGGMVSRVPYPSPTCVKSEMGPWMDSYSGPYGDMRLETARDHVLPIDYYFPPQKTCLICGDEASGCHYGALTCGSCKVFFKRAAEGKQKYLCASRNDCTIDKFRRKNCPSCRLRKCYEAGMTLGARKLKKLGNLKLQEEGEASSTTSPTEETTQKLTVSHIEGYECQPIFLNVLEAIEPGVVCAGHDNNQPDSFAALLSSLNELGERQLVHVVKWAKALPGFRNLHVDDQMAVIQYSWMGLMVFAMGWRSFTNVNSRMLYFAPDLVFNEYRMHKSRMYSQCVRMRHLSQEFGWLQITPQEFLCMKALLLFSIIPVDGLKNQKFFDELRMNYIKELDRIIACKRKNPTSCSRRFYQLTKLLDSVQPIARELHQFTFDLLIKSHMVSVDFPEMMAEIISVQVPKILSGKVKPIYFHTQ
The assay is described as follows: Androgen receptor reporter gene assay, antagonist action against DHT (MMTV-Luc, pSG5/hAR and Renilla Luc vectors transfected into HeLa cells, dual-luciferase). In kind it is cell-based. As to the method:
The expression "acting as antagonist" means that in the following androgen receptor gene assay, the transcriptional activity value of 0.1 nmol/L of dihydrotestosterone (DHT) is inhibited to 0 - 50% at any concentration of 0.1 nmol/L - 10 µmol/L:
Twenty-four hours before transfection, 1.0 x 10^5 HeLa cells are cultured in phenol red free DMEM/5% DCC-FBS on 12-well microplates. Five hundred nanograms/well of MMTV-Luc vector, 100 ng/well of pSG5/hAR and 5 ng/well of Renilla Luc vector are transfected into the HeLa cells. The transfection is performed in a liquid culture of the phenol red free DMEM using […] of lipofectoamine. Nine hours after the transfection, the liquid culture is replaced by phenol red free DMEM/3% DCC-FBS containing 0.1 nmol/L of DHT and […] of a compound of the invention which is represented by the general formula (I) or the substance of the invention which acts as antagonist against but not as agonist for the androgen receptor. The transcriptional activity value is measured 48 hours after the replacement of the liquid culture. Transcriptional activity is measured with a dual-luciferase reporter assay system. The transcriptional activity value is defined as the value for firefly luciferase divided by the value for sea pansy luciferase. […] 270, pp. 19998-20003, 1995.
(§1) Twenty-four hours before transfection, 1.0 x 10^5 HeLa cells were cultured in phenol red free DMEM/5% DCC-FBS on 12-well microplates. Five hundred nanograms/well of MMTV-Luc vector, 100 ng/well of pSG5/hAR and 5 ng/well of Renilla Luc vector were transfected into the HeLa cells. The transfection was performed in a liquid culture of the phenol red free DMEM using […] of lipofectoamine. […] The transcriptional activity value was measured 48 hours after the replacement of the liquid culture. Transcriptional activity was measured with a dual-luciferase reporter assay system. The transcriptional activity value was calculated as the value for firefly luciferase divided by the value for sea pansy luciferase.
The compound was added at concentrations of 1, 10, 100, 1000 and 10000 nmol/L and at each of these concentrations, measurement was done in the presence of DHT (0.1 nmol/L). Antagonist activity = Transcriptional activity when the compound was added/Transcriptional activity when the compound was not added x 100 [formula]

The target in assay [2] is T1, human androgen receptor. The assay is described as follows: Androgen receptor reporter gene assay, agonist action (MMTV-Luc, pSG5-hAR and Renilla Luc vectors transfected into HeLa cells, dual-luciferase). To be noted: for FI5 value: concentration showing a transcriptional activity five times that without compound, tested at 1, 10, 100, 1000 and 10000 nmol/L. It counts as cell-based.
From the text: Speaking of the substance of the invention which acts as antagonist against but not as agonist for the androgen receptor, the expression "not acting as agonist" means that in the following androgen receptor gene assay, the transcriptional activity value of the substance at any concentration of 0.1 nmol/L - 10 µmol/L is from one to five times the transcriptional activity value for no addition of the substance which is taken as unity:
Twenty-four hours before transfection, 1.0 x 10^5 HeLa cells (purchased from Dainippon Pharmaceutical Co., Ltd.) are cultured in phenol red free Dulbecco's modified Eagle medium (DMEM) containing 5% of charcoal-treated FBS (DCC-FBS) in 12-well microplates. Five hundred nanograms/well of MMTV-Luc vector (the reporter plasmid of luciferase having mouse tumor long terminal repeats containing the androgen response element: GM-CAT vector (A.T.C.C. No. 67282) purchased from A.T.C.C. provided that the chloramphenicol acetyl transferase gene was replaced by the firefly luciferase gene), 100 ng/well of pSG5-hAR (the expression vector of the human androgen receptor which harbors the androgen receptor gene under the control of SV40 promoter) and 5 ng/well of Renilla Luc vector (a vector for internal standard incorporating the sea pansy luciferase gene) are transfected into the HeLa cells. The transfection is performed in a liquid culture of the phenol red free DMEM using […] of lipofectoamine (GibcoBRL). Nine hours after the transfection, the liquid culture is replaced by phenol red free DMEM/3% DCC-FBS containing 10 µmol/L of a compound of the invention which is represented by the general formula (I) or the substance of the invention which acts as antagonist against but not as agonist for the androgen receptor. The transcriptional activity value is measured 48 hours after the replacement of the liquid culture. Transcriptional activity is measured with a dual-luciferase reporter assay system (Promega). The transcriptional activity value is defined as the value for firefly luciferase divided by the value for sea pansy luciferase. […] 270, pp. 19998-20003, 1995.
as §1, with “pSG5-hAR” for “pSG5/hAR”
The compound was added at concentrations of 1, 10, 100, 1000 and 10000 nmol/L. Agonist activity = Transcriptional activity when the compound was added/Transcriptional activity when the compound was not added [formula]
(Reporter assays use an easily measured gene product as a stand-in for the process of interest.)

[3] abbreviates: concentration giving 50% decrease in the transcriptional activity of DHT 0.1 nmol/L, tested at 1, 10, 100, 1000 and 10000 nmol/L, read-out: IC50 value.

Read-outs that look alike come from different tables or passages of the source.

Regarding `C[C@]12CCC(=O)C[C@@H]1C[C@@H](CCCCCCCC(=O)NCCO)[C@@H]1[C@@H]2CC[C@]2(C)[C@@H](O)CC[C@@H]12` (stereo in doubt) [Example 64, 17β-hydroxy-7α-[7-{N-(2-hydroxyethyl]-aminocarbonyl}heptyl]-5α-androstan-3-one], the IC50 on human androgen receptor [1] (setting [3]) was 809 nM.

Regarding `CNC(=O)CCCOc1cccc(CCC[C@@H]2C[C@H]3CC(=O)CC[C@]3(C)[C@H]3CC[C@]4(C)[C@@H](O)CC[C@H]4[C@H]23)c1` (stereo in doubt) [Example 164, 17β-hydroxy-7α-[3-[3-{3-(N-methylaminocarbonyl)propoxy}phenyl]propyl]-5α-androstan-3-one], at human androgen receptor [1], half-maximal inhibition (IC50) required 291 nM. Further, the FI5 value entry on human androgen receptor [2] is “ND (even when the compound was added at a concentration of 10000 nM, the transcriptional activity of the compound-treated group was less than 5 times the transcriptional activity of the control group, making it impossible to compute the FI5 value)”.

For `CCCCN(C)C(=O)CCCCCCCCCC[C@@H]1CC2=CC(=O)CC[C@]2(C)[C@H]2CC[C@]3(C)[C@@H](O)CC[C@H]3[C@H]12` [EM-101, reference compound], the IC50 at human androgen receptor [1] (setting [3]) was 2620 nM.

As to `CN(C)C(=O)CCCCCCC[C@@H]1C[C@H]2CC(=O)CC[C@]2(C)[C@H]2CC[C@]3(C)[C@@H](O)CC[C@H]3[C@H]12` [Example 9, 17β-hydroxy-7α-{7-(N,N-dimethylaminocarbonyl)-heptyl}-5α-androstan-3-one], on human androgen receptor [1], the IC50 was 451 nM.

For the compound `CCNC(=O)CCCCCCC[C@@H]1C[C@H]2CC(=O)CC[C@]2(C)[C@H]2CC[C@]3(C)[C@@H](O)CC[C@H]3[C@H]12` [Example 10], on human androgen receptor [1] (setting [3]), the IC50 was 937 nM.

On human androgen receptor [1], `CC(C)NC(=O)CCCCCCCC1CC2CC(=O)CCC2(C)C2CCC3(C)C(O)CCC3C12` (stereo not shown) [Example 14] registered an IC50 of 1980 nM. At human androgen receptor [2], the FI5 value result was “ND (even when the compound was added at a concentration of 10000 nM, the transcriptional activity of the compound-treated group was less than 5 times the transcriptional activity of the control group, making it impossible to compute the FI5 value)”.

For the compound `CCCCN(C)C(=O)CCCCCCCC1CC2CC(=O)CCC2(C)C2CCC3(C)C(O)CCC3C12` (stereo not shown) [Example 18], at human androgen receptor [1], the IC50 was 342 nM.

The compound `CCN(CC)C(=O)CCCCCCCC1CC2CC(=O)CCC2(C)C2CCC3(C)C(O)CCC3C12` (stereo not shown) [Example 19] showed an IC50 on human androgen receptor [1] of 295 nM.

With `CC12CCC3C(C(CCCCCCCC(=O)NCc4ccco4)CC4CC(=O)CCC43C)C1CCC2O` (stereo not shown) [Example 23], the IC50 on human androgen receptor [1] (setting [3]) stood at 1300 nM.

With `CNC(=O)CCCCCCCC1CC2CC(=O)CCC2(C)C2CCC3(C)C(O)CCC3C12` (stereo not shown) [Example 24], it took 477 nM to reach half-maximal inhibition at human androgen receptor [1] (IC50).

Take `CCN(C)C(=O)CCCCCCCC1CC2CC(=O)CCC2(C)C2CCC3(C)C(O)CCC3C12` (stereo not shown) [Example 25]: the IC50 on human androgen receptor [1] (setting [3]) was 415 nM.

Take `CCCN(C)C(=O)CCCCCCCC1CC2CC(=O)CCC2(C)C2CCC3(C)C(O)CCC3C12` (stereo not shown) [Example 26]: the IC50 at human androgen receptor [1] (setting [3]) was found to be 1130 nM.

For `CC(C)N(C)C(=O)CCCCCCCC1CC2CC(=O)CCC2(C)C2CCC3(C)C(O)CCC3C12` (stereo not shown) [Example 27], on human androgen receptor [1], it took 421 nM to reach half-maximal inhibition (IC50).

For `CC12CCC3C(C(CCCCCCCC(=O)N4CCCC4)CC4CC(=O)CCC43C)C1CCC2O` (stereo not shown) [Example 29], on human androgen receptor [1], the IC50 amounted to 304 nM. Moreover, the FI5 value entry on human androgen receptor [2] is listed as “ND (even when the compound was added at a concentration of 10000 nM, the transcriptional activity of the compound-treated group was less than 5 times the transcriptional activity of the control group, making it impossible to compute the FI5 value)”.

For `CN(C)C(=O)CCCCCCCCCC1CC2CC(=O)CCC2(C)C2CCC3(C)C(O)CCC3C12` (stereo not shown) [Example 42], the IC50 at human androgen receptor [1] (setting [3]) is 342 nM.

On to `CCN(CC)C(=O)CCCCCCCCCC1CC2CC(=O)CCC2(C)C2CCC3(C)C(O)CCC3C12` (stereo not shown) [Example 43], for which the IC50 at human androgen receptor [1] (setting [3]) was found to be 1300 nM.

With `CCCCN(C)C(=O)CCCCCCCCCC1CC2CC(=O)CCC2(C)C2CCC3(C)C(O)CCC3C12` (stereo not shown) [Example 46], the IC50 at human androgen receptor [1] (setting [3]) was 1750 nM.

Take `CCCN(C)C(=O)CCCCCCCCCC1CC2CC(=O)CCC2(C)C2CCC3(C)C(O)CCC3C12` (stereo not shown) [Example 50]: the IC50 on human androgen receptor [1] (setting [3]) amounted to 737 nM.

For `CC12CCC3C(C(CCCCCCCCCC(=O)N4CCOCC4)CC4CC(=O)CCC43C)C1CCC2O` (stereo not shown) [Example 51], at human androgen receptor [1] (setting [3]), the half-maximal inhibitory concentration (IC50) was 474 nM.

For `CCCNC(=O)CCCCCCCC1CC2CC(=O)CCC2(C)C2CCC3(C)C(O)CCC3C12` (stereo not shown) [Example 65], the IC50 at human androgen receptor [1] (setting [3]) was found to be 1830 nM.

In the case of `CC12CCC3C(C(CCCCCCCC(=O)NCc4ccccc4)CC4CC(=O)CCC43C)C1CCC2O` (stereo not shown) [Example 73], the IC50 at human androgen receptor [1] (setting [3]) came to 1100 nM.

Turning to `CCN(CC)C(=O)CCCCCCCCCC1CC2(C)C(O)CCC2C2CCC3CC(=O)CCC3(C)C12` (stereo not shown) [Example 96], the IC50 at human androgen receptor [1] (setting [3]) was 1600 nM.

With `CC12CCC3C(C(CCCc4cccc(OCCCCC(=O)N5CCCC5)c4)CC4CC(=O)CCC43C)C1CCC2O` (stereo not shown) [Example 167], on human androgen receptor [1] (setting [3]), the IC50 was determined as 475 nM.

For `CN(C)C(=O)CCCOc1cccc(CCCC2CC3CC(=O)CCC3(C)C3CCC4(C)C(O)CCC4C23)c1` (stereo not shown) [Example 168], the IC50 at human androgen receptor [1] (setting [3]) turned out to be 540 nM.

On to bicaltamide, for which the “transcriptional activity value relative to the case of non-addition” value at human androgen receptor [2] (Example 1, HeLa cells, 48 hours) is “more than five times”. At human androgen receptor [2] (at a concentration of 10 µmol/L), the acting as agonist result is “act as agonist”. For the same compound, the FI5 value at human androgen receptor [2] was found to be 767 nM. In addition, the “agonist action for the androgen receptor mediated transcriptional activity” value at human androgen receptor [2] (summary of the results of Example 180) is on record as “exhibit agonist action”.
